From patent publication US9446017B2, “Compositions and methods for treating herpes simplex virus” (Augusta University Research Institute, Inc., priority 2005, dated 2016)
Several values for one entry are separate records, joined by “and”; a condition that tells them apart may be missing. Equal entries are not always repeated.

Columns and labels:
HSV-1 = settings: antibodies against gB, gD, and a capsid protein; cited from earlier work
HSV1-UL46 = experiment: GFP expression study using a fluorometer; format: cell-based; settings: 75 μM, virions treated 3 hours, cells 12 hrs
Description: GFP expression was studied in Escherichia coli that contained GFP plasmid, and Escherichia coli without GFP plasmid. The fluorometer used was a Tuner Digital Fluorometer-Model 450. Samples were put into 3 mLs of H2O and serial dilutions were performed from the first 3 mLs of each sample. A standard dilution curve was obtained from the serial dilutions. Next, Vero cells were grown on T-75 flasks and allowed to reach confluence. HSV1 virions were treated for 3 hours with 75 μM of polyphenols prior to cell infection. Cells were then infected with treated and non-treated HSV1-UL46 and allowed to adsorb for 1 hour. Viruses that had not been absorbed were then removed by washing the cells twice with PBS. The cells were then incubated at 37° C. for 12 hrs. Cells were then trypsinized and pelleted. Finally, cells were resuspended with 3 mLs of H2O and analyzed for GFP expression using a fluorometer. 3 ml of water was used as the blank sample. The Gain knob was set to 1000 for higher fluorescence sensitivity.
In this experiment, Vero cells only, HSV1/Vero cells, and 75 μM EGCG-ester-HSV1/Vero cells were used to quantitatively measure GFP expression.

[1] = Stability of the polyphenol (statements, no method); format: physicochemical; settings: vaginal pH

SMILES | drop in immunogold labeling, treated compared to untreated virions (HSV-1) | GFP expression (fluorometer) compared to HSV1/Vero cells (HSV1-UL46) | stability [1]
O=C(O[C@@H]1Cc2c(O)cc(O)cc2O[C@@H]1c1cc(O)c(O)c(O)c1)c1cc(O)c(O)c(O)c1 [EGCG, (−)-epigallocatechin-3-gallate, reference compound] | 30% and 40% | – | –
CCCCCCCCCCCCCCCC(=O)Oc1c(O)cc([C@H]2Oc3cc(O)cc(O)c3C[C@H]2OC(=O)c2cc(O)c(O)c(O)c2)cc1O [EGCG-ester] | – | much lower | stable at vaginal pH
